For one assay, the target named is T1, Enolase 1 (ENO1) (Homo sapiens, UniProt P06733).
T1 construct: recombinant wild-type human ENO1 (NP_001419.1), pET28a, His-tag
The assay is described as follows: MicroScale Thermophoresis with purified ENO1; also LC-MS/MS site mapping, CETSA, pull-down competition and enzyme activity inhibition. Format: binding.

Another assay concerns the target T2, Enolase 1 (ENO1) C399A (Homo sapiens, UniProt P06733, C399A).
T2 construct: recombinant human ENO1-C399A, pET28a, His-tag
In words: MicroScale Thermophoresis with purified mutant ENO1. Format: binding. A general note: MST reads how a fluorescent partner responds to local heating, with and without ligand.

Molecules are shown by their SMILES. pKd: −log10 of the molar value.

T1 sequence (P06733 2-434): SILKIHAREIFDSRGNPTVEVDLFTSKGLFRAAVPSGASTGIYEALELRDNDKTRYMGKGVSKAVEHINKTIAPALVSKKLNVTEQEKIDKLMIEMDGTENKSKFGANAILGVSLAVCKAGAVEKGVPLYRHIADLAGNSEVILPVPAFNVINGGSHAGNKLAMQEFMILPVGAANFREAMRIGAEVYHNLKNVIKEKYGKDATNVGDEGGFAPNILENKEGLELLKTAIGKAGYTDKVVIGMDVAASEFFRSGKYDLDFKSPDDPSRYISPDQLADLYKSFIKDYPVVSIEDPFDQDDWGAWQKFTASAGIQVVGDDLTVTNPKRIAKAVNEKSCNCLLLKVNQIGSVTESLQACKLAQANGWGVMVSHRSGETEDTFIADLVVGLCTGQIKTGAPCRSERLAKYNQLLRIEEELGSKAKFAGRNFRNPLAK
T2 sequence (P06733 2-434 C399A): as the sequence (P06733 2-434) above, with C398A counted along it

Usually pKd stands for the Kd on a negative log10 scale, so that one unit is a factor of ten. Low readings indicate a high Kd, high ones a low Kd. For the compound `O=C(/C=C/c1ccc(O)c(O)c1)O[C@@H]1C[C@](O)(C(=O)O)C[C@@H](O)[C@H]1O` [CGA, Chlorogenic acid], the pKd at Enolase 1 (ENO1) is 4.70; on Enolase 1 (ENO1) C399A it was 3.89.

The record behind these values is paper PMC11984691, “Identifying ENO1 as a protein target of chlorogenic acid to inhibit cellular senescence and prevent skin photoaging in mice” (Aging Cell, 2024).
